Results: the supplement of paper PMC10307832

What was measured:
Test in all cases: relative viability (nuclei count vs DMSO), 5 days (fraction); higher = more cells survive
NCI-H727 = system: NCI-H727
Summary of the method: (§1)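 One day after seeding in 1536-well plates, lung cancer cell lines were dosed by pin tool. Dosing was either single-drug or a fixed anchor-drug dose plus five library-drug doses (not always all listed) in √10 steps. After 5 days, nuclei were stained in one fix-and-stain step and counted on 4× images, and relative viability is the nuclei count of treated wells over that of vehicle wells, given as the median of duplicate plates.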

LCLC-97TM1 = system: LCLC-97TM1
Summary of the method: as §1

NCI-H1792 = system: NCI-H1792
Summary of the method: as §1

H3255 = system: H3255
Summary of the method: as §1

NCI-H661 = system: NCI-H661
Summary of the method: as §1

A-427 = system: A-427
Summary of the method: as §1

NCI-H460 = system: NCI-H460
Summary of the method: as §1

NCI-H1651 = system: NCI-H1651
Summary of the method: as §1

NCI-H441 = system: NCI-H441
Summary of the method: as §1

NCI-H2023 = system: NCI-H2023
Summary of the method: as §1

LC-2-ad = system: LC-2-ad
Summary of the method: as §1

NCI-H650 = system: NCI-H650
Summary of the method: as §1

NCI-H520 = system: NCI-H520
Summary of the method: as §1

ABC-1 = system: ABC-1
Summary of the method: as §1

201T = system: 201T
Summary of the method: as §1

NCI-H1944 = system: NCI-H1944
Summary of the method: as §1

PC-3 [JPC-3] = system: PC-3 [JPC-3]
Summary of the method: as §1

BEN = system: BEN
Summary of the method: as §1

NCI-H596 = system: NCI-H596
Summary of the method: as §1

CAL-12T = system: CAL-12T
Summary of the method: as §1

NCI-H2087 = system: NCI-H2087
Summary of the method: as §1

NCI-H1915 = system: NCI-H1915
Summary of the method: as §1

**Q.** With `Oc1nc(-c2ccc(C(F)(F)F)cc2)nc2c1CSCC2` [XAV939] + C[C@]1(O)C[C@@H](c2nc(-c3ccc4ccc(-c5ccccc5)nc4c3)c3c(N)nccn32)C1 [Linsitinib] (partner 1 µM) as the molecule, how does the relative viability (NCI-H727; first compound 0.08 µM) read?
**A.** 0.315

**Q.** And the relative viability (NCI-H727; first compound 0.253 µM)?
**A.** 0.246

**Q.** What about the relative viability (NCI-H727; first compound 0.8 µM) of the same molecule?
**A.** 0.233

**Q.** And the relative viability (NCI-H727; first compound 2.53 µM)?
**A.** 0.372

**Q.** What about the relative viability (LCLC-97TM1; first compound 0.08 µM) of the same molecule?
**A.** 0.192

**Q.** What about the relative viability (LCLC-97TM1; first compound 0.253 µM) of the same molecule?
**A.** 0.19

**Q.** What about the relative viability (LCLC-97TM1; first compound 0.8 µM) of the same molecule?
**A.** 0.206

**Q.** And the relative viability (LCLC-97TM1; first compound 2.53 µM)?
**A.** 0.167

**Q.** What about the relative viability (NCI-H1792; first compound 0.08 µM) of the same molecule?
**A.** 0.672

**Q.** And the relative viability (NCI-H1792; first compound 0.253 µM)?
**A.** 0.537

**Q.** What about the relative viability (NCI-H1792; first compound 0.8 µM) of the same molecule?
**A.** 0.557

**Q.** And the relative viability (NCI-H1792; first compound 2.53 µM)?
**A.** 0.453

**Q.** And the relative viability (H3255; first compound 0.08 µM)?
**A.** 0.981

**Q.** What about the relative viability (H3255; first compound 0.253 µM) of the same molecule?
**A.** 0.843

**Q.** And the relative viability (H3255; first compound 0.8 µM)?
**A.** 1.05

**Q.** And the relative viability (H3255; first compound 2.53 µM)?
**A.** 0.784

**Q.** What about the relative viability (NCI-H661; first compound 0.08 µM) of the same molecule?
**A.** 0.653

**Q.** What about the relative viability (NCI-H661; first compound 0.253 µM) of the same molecule?
**A.** 0.568

**Q.** What about the relative viability (NCI-H661; first compound 0.8 µM) of the same molecule?
**A.** 0.649

**Q.** What about the relative viability (NCI-H661; first compound 2.53 µM) of the same molecule?
**A.** 0.35

**Q.** And the relative viability (A-427; first compound 0.08 µM)?
**A.** 1.02

**Q.** And the relative viability (A-427; first compound 0.253 µM)?
**A.** 1.12

**Q.** And the relative viability (A-427; first compound 0.8 µM)?
**A.** 1.08

**Q.** And the relative viability (A-427; first compound 2.53 µM)?
**A.** 1.08

**Q.** What about the relative viability (NCI-H460; first compound 0.08 µM) of the same molecule?
**A.** 0.988

**Q.** What about the relative viability (NCI-H460; first compound 0.253 µM) of the same molecule?
**A.** 0.651

**Q.** And the relative viability (NCI-H460; first compound 0.8 µM)?
**A.** 0.959

**Q.** And the relative viability (NCI-H460; first compound 2.53 µM)?
**A.** 0.778

**Q.** What about the relative viability (NCI-H1651; first compound 0.08 µM) of the same molecule?
**A.** 1.01

**Q.** And the relative viability (NCI-H1651; first compound 0.253 µM)?
**A.** 0.799

**Q.** And the relative viability (NCI-H1651; first compound 0.8 µM)?
**A.** 0.915

**Q.** What about the relative viability (NCI-H1651; first compound 2.53 µM) of the same molecule?
**A.** 0.875

**Q.** What about the relative viability (NCI-H441; first compound 0.08 µM) of the same molecule?
**A.** 0.675

**Q.** And the relative viability (NCI-H441; first compound 0.253 µM)?
**A.** 0.413

**Q.** And the relative viability (NCI-H441; first compound 0.8 µM)?
**A.** 0.507

**Q.** And the relative viability (NCI-H441; first compound 2.53 µM)?
**A.** 0.507

**Q.** What about the relative viability (NCI-H2023; first compound 0.08 µM) of the same molecule?
**A.** 0.699

**Q.** What about the relative viability (NCI-H2023; first compound 0.253 µM) of the same molecule?
**A.** 0.626

**Q.** What about the relative viability (NCI-H2023; first compound 0.8 µM) of the same molecule?
**A.** 0.625

**Q.** What about the relative viability (NCI-H2023; first compound 2.53 µM) of the same molecule?
**A.** 0.447

**Q.** And the relative viability (LC-2-ad; first compound 0.08 µM)?
**A.** 0.873

**Q.** What about the relative viability (LC-2-ad; first compound 0.253 µM) of the same molecule?
**A.** 0.797

**Q.** And the relative viability (LC-2-ad; first compound 0.8 µM)?
**A.** 0.819

**Q.** And the relative viability (LC-2-ad; first compound 2.53 µM)?
**A.** 0.73

**Q.** And the relative viability (NCI-H650; first compound 0.08 µM)?
**A.** 1.13

**Q.** And the relative viability (NCI-H650; first compound 0.253 µM)?
**A.** 1.07

**Q.** What about the relative viability (NCI-H650; first compound 0.8 µM) of the same molecule?
**A.** 0.911

**Q.** What about the relative viability (NCI-H650; first compound 2.53 µM) of the same molecule?
**A.** 0.857

**Q.** And the relative viability (NCI-H520; first compound 0.08 µM)?
**A.** 0.983

**Q.** What about the relative viability (NCI-H520; first compound 0.253 µM) of the same molecule?
**A.** 0.974

**Q.** What about the relative viability (NCI-H520; first compound 0.8 µM) of the same molecule?
**A.** 0.833

**Q.** And the relative viability (NCI-H520; first compound 2.53 µM)?
**A.** 0.775

**Q.** What about the relative viability (ABC-1; first compound 0.08 µM) of the same molecule?
**A.** 0.915

**Q.** What about the relative viability (ABC-1; first compound 0.253 µM) of the same molecule?
**A.** 0.733

**Q.** What about the relative viability (ABC-1; first compound 0.8 µM) of the same molecule?
**A.** 0.809

**Q.** And the relative viability (ABC-1; first compound 2.53 µM)?
**A.** 0.315

**Q.** What about the relative viability (201T; first compound 0.08 µM) of the same molecule?
**A.** 0.937

**Q.** And the relative viability (201T; first compound 0.253 µM)?
**A.** 0.8

**Q.** What about the relative viability (201T; first compound 0.8 µM) of the same molecule?
**A.** 0.857

**Q.** And the relative viability (201T; first compound 2.53 µM)?
**A.** 0.873

**Q.** And the relative viability (NCI-H1944; first compound 0.08 µM)?
**A.** 1.22

**Q.** And the relative viability (NCI-H1944; first compound 0.253 µM)?
**A.** 1.12

**Q.** What about the relative viability (NCI-H1944; first compound 0.8 µM) of the same molecule?
**A.** 1.24

**Q.** What about the relative viability (NCI-H1944; first compound 2.53 µM) of the same molecule?
**A.** 1.26

**Q.** And the relative viability (PC-3 [JPC-3]; first compound 0.08 µM)?
**A.** 0.916

**Q.** And the relative viability (PC-3 [JPC-3]; first compound 0.253 µM)?
**A.** 0.863

**Q.** And the relative viability (PC-3 [JPC-3]; first compound 0.8 µM)?
**A.** 1

**Q.** And the relative viability (PC-3 [JPC-3]; first compound 2.53 µM)?
**A.** 0.874

**Q.** And the relative viability (BEN; first compound 0.08 µM)?
**A.** 1.17

**Q.** What about the relative viability (BEN; first compound 0.253 µM) of the same molecule?
**A.** 0.894

**Q.** What about the relative viability (BEN; first compound 0.8 µM) of the same molecule?
**A.** 0.934

**Q.** And the relative viability (NCI-H596; first compound 0.08 µM)?
**A.** 1.09

**Q.** What about the relative viability (NCI-H596; first compound 0.253 µM) of the same molecule?
**A.** 1.02

**Q.** What about the relative viability (NCI-H596; first compound 0.8 µM) of the same molecule?
**A.** 1.03

**Q.** And the relative viability (NCI-H596; first compound 2.53 µM)?
**A.** 0.924

**Q.** And the relative viability (CAL-12T; first compound 0.08 µM)?
**A.** 0.87

**Q.** And the relative viability (CAL-12T; first compound 0.253 µM)?
**A.** 0.809

**Q.** And the relative viability (CAL-12T; first compound 0.8 µM)?
**A.** 0.667

**Q.** And the relative viability (CAL-12T; first compound 2.53 µM)?
**A.** 0.667

**Q.** And the relative viability (NCI-H2087; first compound 0.08 µM)?
**A.** 1.14

**Q.** And the relative viability (NCI-H2087; first compound 0.253 µM)?
**A.** 0.936

**Q.** What about the relative viability (NCI-H2087; first compound 0.8 µM) of the same molecule?
**A.** 0.939

**Q.** And the relative viability (NCI-H2087; first compound 2.53 µM)?
**A.** 0.672

**Q.** What about the relative viability (NCI-H1915; first compound 0.08 µM) of the same molecule?
**A.** 1.13

**Q.** And the relative viability (NCI-H1915; first compound 0.253 µM)?
**A.** 1.11

**Q.** And the relative viability (NCI-H1915; first compound 0.8 µM)?
**A.** 1.04

**Q.** And the relative viability (NCI-H1915; first compound 2.53 µM)?
**A.** 1.11
